{
  "source": "patent US7230018B2",
  "about": "“Substituted propane-1,3-diamine derivatives and the pharmaceutical use thereof” (Gruenenthal GmbH, priority 2001, dated 2007)",
  "data": [
    {"tested_on": "phenylquinone-induced writhing in the mouse", "assay": "phenylquinone-induced writhing test in the mouse", "assay_type": "in vivo", "settings": "male NMRI mice, 10 mg/kg intravenously, phenylquinone intraperitoneally 10 minutes after test substance, writhing counted 5 to 20 minutes after phenylquinone, hydrochloride", "method": "Testing of Analgesia in the Writhing Test in the Mouse\nThe investigation for analgesic activity was carried out in the phenylquinone-induced writhing in the mouse (modified by I. C. Hendershot and J. Forsaith (1959) J. Pharmacol. Exp. Ther. 125, 237-240). Male NMRI mice weighing 25 to 30 g were employed for this. Groups of 10 animals per substance dose received 0.3 ml/mouse of a 0.02% aqueous solution of phenylquinone (phenylbenzoquinone, Sigma, Deisenhofen; preparation of the solution with the addition of 5% ethanol and storage in a water bath at 45° C.) administered intraperitoneally 10 minutes after intravenous administration of the test substances. The animals were placed individually in observation cages. The number of pain-induced stretching movements (so-called writhing reactions=straightening of the body with stretching of the hind extremities) was counted by means of a push-button counter 5 to 20 minutes after the administration of phenylquinone. Animals which received only physiological saline solution were also run as a control. All the substances were tested in the standard dosage of 10 mg/kg. The percentage inhibition (% inhibition) of the writhing reaction by a substance was calculated according to the following formula: […]", "values": [
      {"compound": "CN(C)C(c1cccnc1)C1CCCCC1NC(=O)c1ccccc1.Cl", "note": "(stereo not drawn) [Example 1, (syn,syn)-N-[2-(dimethylaminopyridin-3-ylmethyl)cyclohexyl]benzamide hydrochloride]", "% Inhibition of the writhing reaction (dosage in mg/kg intravenously)": "54 (10) %"},
      {"compound": "CN(C)C(c1cccnc1)C1CCCCC1NC(=O)c1ccccc1F.Cl", "note": "(stereo not drawn) [Example 2, (syn,syn)-N-[2-(dimethylaminopyridin-3-ylmethyl)cyclohexyl]-2-fluorobenzamide hydrochloride]", "% Inhibition of the writhing reaction (dosage in mg/kg intravenously)": "67 (10) %"},
      {"compound": "CN(C)C(c1cccnc1)C1CCCCC1NC(=O)c1ccccc1Cl.Cl", "note": "(stereo not drawn) [Example 3, (syn,syn)-2-chloro-N-[2-(dimethylaminopyridin-3-ylmethyl)cyclohexyl]-benzamide hydrochloride]", "% Inhibition of the writhing reaction (dosage in mg/kg intravenously)": "85 (10) %"},
      {"compound": "Cc1ccccc1C(=O)NC1CCCCC1C(c1cccnc1)N(C)C.Cl", "note": "(stereo not drawn) [Example 4, (syn,syn)-N-[2-(dimethylaminopyridin-3-ylmethyl)cyclohexyl]-2-methylbenzamide hydrochloride]", "% Inhibition of the writhing reaction (dosage in mg/kg intravenously)": "34 (10) %"},
      {"compound": "CN(C)C(c1cccnc1)C1CCCCC1NC(=O)c1ccccc1.Cl", "note": "(stereo not drawn) [Example 5, (anti,anti)-N-[2-(dimethylaminopyridin-3-ylmethyl)cyclohexyl]-benzamide hydrochloride]", "% Inhibition of the writhing reaction (dosage in mg/kg intravenously)": "49 (10) %"},
      {"compound": "CN(C)C(c1cccnc1)C1CCCCC1NC(=O)c1ccccc1F.Cl", "note": "(stereo not drawn) [Example 6, (anti,anti)-N-[2-(dimethylaminopyridin-3-ylmethyl)cyclohexyl]-2-fluorobenzamide hydrochloride]", "% Inhibition of the writhing reaction (dosage in mg/kg intravenously)": "62 (10) %"},
      {"compound": "CN(C)C(c1cccnc1)C1CCCCC1NC(=O)c1ccccc1Cl.Cl", "note": "(stereo not drawn) [Example 7, (anti,anti)-2-chloro-N-[2-(dimethylaminopyridin-3-ylmethyl)cyclohexyl]benzamide hydrochloride]", "% Inhibition of the writhing reaction (dosage in mg/kg intravenously)": "56 (10) %"},
      {"compound": "Cc1ccccc1C(=O)NC1CCCCC1C(c1cccnc1)N(C)C.Cl", "note": "(stereo not drawn) [Example 8, (anti,anti)-N-[2-(dimethylaminopyridin-3-ylmethyl)cyclohexyl]-2-methylbenzamide hydrochloride]", "% Inhibition of the writhing reaction (dosage in mg/kg intravenously)": "40 (10) %"},
      {"compound": "CC(=O)NC1CCCCC1C(c1cccnc1)N(C)C.Cl", "note": "(stereo not drawn) [Example 9, (syn,syn)-N-[2-(dimethylaminopyridin-3-ylmethyl)cyclohexyl]acetamide hydrochloride]", "% Inhibition of the writhing reaction (dosage in mg/kg intravenously)": "75 (10) %"},
      {"compound": "CC(=O)NC1CCCCC1C(c1cccnc1)N(C)C.Cl", "note": "(stereo not drawn) [Example 10, (anti,anti)-N-[2-(dimethylaminopyridin-3-ylmethyl)cyclohexyl]acetamide hydrochloride]", "% Inhibition of the writhing reaction (dosage in mg/kg intravenously)": "59 (10) %"}
    ]}
  ]
}
